Data on 2 molecules can be found in paper PMC11053772, “Improved Chemical and Radiochemical Synthesis of Neuropeptide Y Y2 Receptor Antagonist N-Methyl-JNJ-31020028 and Preclinical Positron Emission Tomography Studies” (Pharmaceuticals, 2024).

Each structure is given as a SMILES string.

The subject of one data set is Y2 receptors. On the set-up: method as in PMID 19953226. The settings on record: cited from earlier work.
The subject of another data set is Y2 receptor. On the set-up: method as in PMID 24614224. The settings on record: living pigs; cited from earlier work.
A short description of data set [1]: Ex vivo biodistribution by gamma counting one hour after i.v. injection. The settings on record: mice, 1 h after i.v. injection. It is filed as in vivo, C57BL/6N mice. The protocol:
The ex vivo biodistribution studies were performed one hour after the intravenous injection of the [^11C]2 injectable solution. For these studies, transcardiac perfusion with saline was performed, eliminating blood traces from the organs. […] Urinary excretion also occurred, though less radioactivity was found in the urine (84.43 ± 59.41%ID/g). The small intestine (98.64 ± 25.57%ID/g) and liver (14.33 ± 6.39%ID/g) were the organs with major uptake of the radiotracer. The high uptake in the small intestine is explained by the high density of Y2 receptors that exist in this organ, while the uptake in the liver is related to the metabolization of the tracer. Moderately low uptake was found in the stomach (3.082 ± 0.7135%ID/g), large intestine (2.18 ± 0.21%ID/g) and kidneys (1.99 ± 0.49%ID/g).
Biodistribution. In another cohort of animals (n = 5), ex vivo biodistribution (%ID/g of tissue) was performed by gamma counting through CRC®-55t well counter and CRC®-55tW radioisotope dose calibrator (Capintec, Ramsey, NJ, USA). Six regions of the brain were also isolated to characterise brain accumulation; the isolation of the specific brain regions was conducted following established protocols.

The nature of data set [2]: In vivo PET/MRI biodistribution of the radiotracer in mice. Also noted: species or system C57BL/6N mice. The settings on record: i.v., 30–50 min post-injection, mean ± SEM, n = 7. The protocol: PET/MRI images of N-[^11C]Me-JNJ-31020028 and biodistribution studies were performed in healthy C57BL/6N mice. The radiotracer [^11C]2 injectable solutions were administered intravenously to the mice, previously anaesthetised, and the mice were put in the MicroPET scanner for PET imaging acquisition. The MRI acquisition was performed before injection due to the necessity of using equipment different from MicroPET.
PET/MRI Imaging. PET/MRI acquisitions were performed at the Institute for Nuclear Sciences Applied to Health (ICNAS) animal facility. During both acquisitions, the animals (n = 7) were anaesthetised using 1.5–2% isoflurane, and vital signs, such as temperature and respiratory cycle, were monitored. The radiotracer was administered intravenously (i.v.) in a total injected activity of 12.0 ± 2.9 µCi/g. Mice were placed in a MicroPET scanner based on resistive plate chamber detectors (RPC-PET). […] Quantitative imaging processing was performed using PMOD (PMOD, v 3.6; PMOD Technologies, Zürich, Switzerland, RRID: SCR_016547). […] Standardised uptake values (SUVs) were calculated as [[total positron (β+ radioactivity) concentration in the VOI (Bq/mL)]/[total positron (β+ radioactivity) injected (Bq)/weight (g)]] […] The percentage injected dose per gram (%ID/g) was calculated through Equation (2). […]

[3] abbreviates: mean ± SEM, n = 5, listed as [^11C]2.

`CCN(CC)C(=O)C(c1ccccc1)N1CCN(c2ccc(NC(=O)c3ccccc3-c3cccnc3)cc2F)CC1` (stereo not shown) [JNJ-31020028, N-(4-{4-[2-(diethylamino)-2-oxo-1-phenylethyl]piperazin1-yl}-3-fluorophenyl)-2-pyridin-3-ylbenzamide]: the “Affinity and selectivity towards the Y2 receptors” value in the data set on Y2 receptors is “high affinity and selectivity”.

Take `CCN(CC)C(=O)C(c1ccccc1)N1CCN(c2ccc(N([11CH3])C(=O)c3ccccc3-c3cccnc3)cc2F)CC1` (stereo not shown) [N-[^11C]Me-JNJ-31020028]: in the data set on Y2 receptor, the “Blood–brain barrier permeation” value was “permeated the blood–brain barrier” and the “Metabolization in the bloodstream” value is recorded as “slow metabolization in the bloodstream”. In addition, the Route of elimination result in data set [1] (from uptake in bile) is “mainly eliminated through the hepatobiliary system”. For the same molecule, in data set [1] (intestine wall, mean ± SEM, n = 5), the “Ex vivo biodistribution, small intestine” value is recorded as 98.64 ± 25.57 %ID/g. For the same molecule, in data set [1] (mean ± SEM, n = 5), the “Brain ex vivo biodistribution, amygdala” value is recorded as 0.9318 ± 0.08 %ID/g; the “Brain ex vivo biodistribution, cerebellum” value was 0.646 ± 0.10 %ID/g; the “Brain ex vivo biodistribution, hippocampus” value is listed as 0.8976 ± 0.09 %ID/g; the “Brain ex vivo biodistribution, hypothalamus” value is 1.03 ± 0.11 %ID/g. For the same molecule, in data set [1] (mean ± SEM, n = 5), the “Brain ex vivo biodistribution, pre-frontal cortex (PFC)” value is 0.636 ± 0.06 %ID/g; the “Brain ex vivo biodistribution, striatum” value was determined as 1.013 ± 0.11 %ID/g; the “Ex vivo biodistribution, blood” value came to 3.661 %ID/g; the “Ex vivo biodistribution, kidney” value worked out at 1.986 %ID/g. Also, in data set [1] (mean ± SEM, n = 5), the “Ex vivo biodistribution, large intestine” value is on record as 2.18 ± 0.21 %ID/g; the “Ex vivo biodistribution, liver” value is on record as 14.33 ± 6.39 %ID/g; the “Ex vivo biodistribution, urine” value came to 84.43 ± 59.41 %ID/g. For the same molecule, in data set [1] (setting [3]), the “Ex vivo biodistribution, bile” value is listed as 250.1 ± 23.97 %ID/g; the “Ex vivo biodistribution, blood” value worked out at 3.66 ± 1.55 %ID/g; the “Ex vivo biodistribution, kidney” value came to 1.99 ± 0.49 %ID/g; the “Ex vivo biodistribution, stomach” value is 3.082 ± 0.7135 %ID/g. In data set [1] (n = 5), the “Ex vivo biodistribution, faeces” value turned out to be 3.149 %ID/g; the “Ex vivo biodistribution, heart” value is 1.394 %ID/g; the “Ex vivo biodistribution, lung” value stood at 0.5568 %ID/g; the “Ex vivo biodistribution, muscle” value is reported as 0.9318 %ID/g. Further, in data set [1] (n = 5), the “Ex vivo biodistribution, spleen” value was 1.504 %ID/g and the “Ex vivo biodistribution, whole brain” value was determined as 0.6362 %ID/g. In data set [2], the “Uptake in the brain (in vivo PET)” value is on record as 0.5187 ± 0.08 %ID/g and the “Uptake in the gut (in vivo PET)” value worked out at 12.57 ± 1.27 %ID/g.
